Experimental data taken from patent publication US20230183179A1, “NOVEL CELL METABOLISM MODULATING COMPOUNDS AND USES THEREOF” (CRESCENTA BIOSCIENCES, priority 2020, published 2023).

Assays:
[1] = test system: differentiated 3T3-L1 mouse adipocyte cells; assay: Adipocyte glucose consumption in differentiated 3T3-L1 cells (colorimetric glucose assay of the medium); assay type: cell-based; conditions: 3T3-L1, 24 h, compound 10 μM, loss of glucose from culture medium, mean fold change (compound/DMSO)
Method in brief: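 Differentiated 3T3-L1 mouse adipocytes (rosiglitazone/dexamethasone/IBMX/insulin induction, day 11) treated 24 h with compounds at 10 μM, 0.1% DMSO final. Medium glucose measured colorimetrically; consumption taken as glucose loss from medium versus cell-free control, expressed as mean fold change compound/DMSO ±SD.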

[2] = target: T1, His6 tagged human recombinant FABP4 (Homo sapiens, UniProt P15090); assay: FABP4 TR-FRET assay: displacement of fluorescent fatty acid BODIPY FL C12; conditions: inhibition of BODIPY FL C12 binding to His6-FABP4; 1.2 μL of 1.085 mM compound in DMSO per well; triplicates, mean percent inhibition
T1 construct: purchased Cayman Chemicals 10009549
Method in brief: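 TR-FRET displacement of BODIPY FL C12 from His6-FABP4 bound by Tb-anti-His6 antibody, in Tris pH 7.4 buffer with γ-globulins, NP-40 and DTT; compound stock 1.085 mM in DMSO. Read after 10 min at room temperature as 520/615 nm ratio; mean % inhibition versus DMSO from triplicates.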

T1 sequence (P15090 whole entry): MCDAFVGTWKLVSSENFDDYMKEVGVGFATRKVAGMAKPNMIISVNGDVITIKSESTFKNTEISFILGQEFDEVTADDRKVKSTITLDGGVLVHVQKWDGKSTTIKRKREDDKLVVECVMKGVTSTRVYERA

| SMILES | fold induction at 10 µM [1] | inhibition at 1085 µM (stock) [2] [%] |
| --- | --- | --- |
| COc1ccccc1CCc1ccc2nc(N(C)CC(=O)O)cc(-c3ccccc3)c2c1 [2-({6-[2-(2-methoxyphenyl)ethyl]-4-phenylquinolin-2-yl}(methyl)amino)acetic acid] | 1.11 | 65.1 |
| CCCCc1ccc2nc(OCC(=O)O)c(C(=O)O)c(-c3ccccc3)c2c1 [6-butyl-2-(carboxymethoxy)-4-phenylquinoline-3-carboxylic acid] | 0.99 | 44.6 |
| CN(CC(=O)O)c1cc(-c2ccccc2)c2cc(CCc3ccc4c(c3)CCCN4)ccc2n1 [2-[methyl({4-phenyl-6-[2-(1,2,3,4-tetrahydroquinolin-6-yl)ethyl]quinolin-2-yl})amino]acetic acid] | 1.31 | 44.7 |
| CC(Oc1cc(-c2ccccc2)c2cc(CCc3ccccc3)ccc2n1)C(=O)O (centres unmarked) [2-{[4-phenyl-6-(2-phenylethyl)quinolin-2-yl]oxy}propanoic acid] | 1.21 | 34.1 |
| CCCCCCCCc1ccc2nc(N(C)CC(=O)O)cc(-c3ccc(F)cc3)c2c1 [2-{[4-(4-fluorophenyl)-6-octylquinolin-2-yl](methyl)amino}acetic acid] | 1.28 | 53.8 |
| CCCc1ccc2nc(N(C)CC(=O)O)cc(-c3cccc(C#N)c3)c2c1 [2-([4-(3-cyanophenyl)-6-propylquinolin-2-yl](methyl)amino}acetic acid] | 1.31 | 27.7 |
| CN(CC(=O)O)c1cc(-c2ccccc2)c2cc(OCc3ccccc3)ccc2n1 [2-{[6-(benzyloxy)-4-phenylquinolin-2-yl](methyl)amino}acetic acid] | 1.27 | 84.2 |
| CCCCCCc1ccc2nc(N(C)CC(C)C(=O)O)cc(-c3cccc(C#N)c3)c2c1 (centres unmarked) [3-{[4-(3-cyanophenyl)-6-hexylquinolin-2-yl](methyl)amino}-2-methylpropanoic acid] | 1.3 | 56.5 |
| CCCCCc1ccc2nc(N(C)CC(=O)O)cc(-c3cccc(C(N)=O)c3)c2c1 [2-{[4-(3-carbamoylphenyl)-6-pentylquinolin-2-yl](methyl)amino}acetic acid] | 1.04 | 60.4 |
| O=C(O)C1CC(=O)N(c2cc(-c3ccccc3)c3cc(CCc4ccccc4)ccc3n2)C1 (centres unmarked) [5-oxo-1-[4-phenyl-6-(2-phenylethyl)quinolin-2-yl]pyrrolidine-3-carboxylic acid] | 1.24 | 7.89 |
| CN(CC(=O)O)c1cc(-c2ccccc2)c2cc(CCc3ccnc4[nH]ccc34)ccc2n1 [2-{methyl[4-phenyl-6-(2-{1H-pyrrolo[2,3-b]pyridin-4-yl}ethyl)quinolin-2-yl]amino}acetic acid] | 1.26 | 29.8 |
| CN(CC(=O)O)c1cc(-c2ccccc2)c2cc(CCc3ccncc3)ccc2n1 [2-[methyl({4-phenyl-6-[2-(pyridin-4-yl)ethyl]quinolin-2-yl})amino]acetic acid] | 1.26 | < 0 |
| CCCCCCc1ccc2nc(N(C)CC(=O)O)cc(Oc3ccncc3)c2c1 [2-{[6-hexyl-4-(pyridin-4-yloxy)quinolin-2-yl](methyl)amino}acetic acid] | 1.02 | 10.7 |
| CCCCCCc1ccc2c(-c3ccccc3)cc(N(C)CC(=O)O)nc2c1 [2-[(7-hexyl-4-phenylquinolin-2-yl)(methyl)amino]acetic acid] | 1.26 | 25.3 |
| CCCCCCCCc1ccc2nc(N(C)CC(=O)O)cc(Oc3ccncc3)c2c1 [2-{methyl [6-octyl-4-(pyridin-4-yloxy)quinolin-2-yl]amino}acetic acid] | 1.14 | 19.4 |
| CCCCCCc1ccc2nc(N(C)CC(=O)O)cc(Oc3ccc(F)cc3)c2c1 [2-([4-(4-fluorophenoxy)-6-hexylquinolin-2-yl](methyl)amino}acetic acid] | 1.27 | 65.2 |
